Data taken from patent US9346799B2, “Useful combinations of monobactam antibiotics with beta-lactamase inhibitors” (Basilea Pharmaceutica AG, priority 2005, dated 2016).

Tests used:
Test in all cases: MIC by broth microdilution (NCCLS M7-A5)
[1] = system: Acinetobacter sp. J2; conditions: Acinetobacter baumannii J2
[2] = system: Pseudomonas aeruginosa MK1184
[3] = system: Pseudomonas aeruginosa 1973E
[4] = system: Enterobacter cloacae P99
[5] = system: Klebsiella pneumoniae CF104
[6] = system: Serratia marcescens S6
[7] = system: Stenotrophomonas malthophilia 1AC736; conditions: Stenotrophomonas maltophilia 1AC736
[8] = system: Enterobacter aerogenes Zayakosky; conditions: E. aerogenes Zayakosky; + compound 323 and sulbactam, 4 mg/L each
[9] = system: Enterobacter aerogenes B1; conditions: E. aerogenes B1; + compound 323 and sulbactam, 4 mg/L each
[10] = + 102 + clavulanate, 4 mg/L each
[11] = + 324 + clavulanate, 4 mg/L each
[12] = + 206 + clavulanate, 4 mg/L each

SMILES | MIC of antibiotic [1, 10] [µg/mL] | MIC of antibiotic ([1]; + 102 + sulbactam, 4 mg/L each) [µg/mL] | MIC of antibiotic ([1]; antibiotic alone) [µg/mL] | MIC of antibiotic [2, 10] [µg/mL] | MIC of antibiotic ([2]; + 102 + sulbactam, 4 mg/L each) [µg/mL] | MIC of antibiotic ([2]; antibiotic alone) [µg/mL] | MIC of antibiotic [3, 10] [µg/mL] | MIC of antibiotic ([3]; + 102 + sulbactam, 4 mg/L each) [µg/mL] | MIC of antibiotic ([3]; antibiotic alone) [µg/mL] | MIC of antibiotic [4, 10] [µg/mL] | MIC of antibiotic ([4]; antibiotic alone) [µg/mL] | MIC of antibiotic [5, 10] [µg/mL] | MIC of antibiotic ([5]; + 102 + sulbactam, 4 mg/L each) [µg/mL] | MIC of antibiotic ([5]; antibiotic alone) [µg/mL] | MIC of antibiotic [6, 10] [µg/mL] | MIC of antibiotic ([6]; + 102 + sulbactam, 4 mg/L each) [µg/mL] | MIC of antibiotic ([6]; antibiotic alone) [µg/mL] | MIC of antibiotic [7, 10] [µg/mL] | MIC of antibiotic ([7]; + 102 + sulbactam, 4 mg/L each) [µg/mL] | MIC of antibiotic ([7]; antibiotic alone) [µg/mL] | other results
C[C@H]1[C@H](NC(=O)/C(=N\OCc2cc(=O)c(O)cn2O)c2nc(N)sc2Cl)C(=O)N1OS(=O)(=O)O [Compound 29, (3S,4S)-3-{(2Z)-2-(2-amino-5-chloro(1,3-thiazol-4-yl))-3-[(1,5-dihydroxy-4-oxo(2-hydropyridyl))methoxy]-3-azaprop-2-enoylamino}-4-methyl-2-oxoazetidinyl hydroxysulfonate] | >32 | 2 | >32 | 8 | 4 | >32 | 8 | 8 | 4 | 0.25 | >32 | 0.5 | 2 | >32 | 1 | 8 | 32 | 0.5 | 1 | 1 | MIC of antibiotic ([1]; + 323 + sulbactam, 4 mg/L each): 2 µg/mL; MIC of antibiotic ([2]; + 323 + sulbactam, 4 mg/L each): 8 µg/mL; MIC of antibiotic ([3]; + 323 + sulbactam, 4 mg/L each): 8 µg/mL; MIC of antibiotic ([4]; + 102 + sulbactam, 4 mg/L each): 8 µg/mL; MIC of antibiotic ([4]; + 323 + sulbactam, 4 mg/L each): 8 µg/mL; MIC of antibiotic ([5]; + 323 + sulbactam, 4 mg/L each): 2 µg/mL; MIC of antibiotic ([6]; + 323 + sulbactam, 4 mg/L each): 8 µg/mL; MIC of antibiotic ([7]; + 323 + sulbactam, 4 mg/L each): 1 µg/mL
NC(=O)OCC1C(NC(=O)C(=NOCc2cc(=O)c(O)cn2O)c2csc(N)n2)C(=O)N1OCC(=O)O (stereo not shown) [Compound 41] | 16 | – | 16 | 4 | – | 4 | 4 | – | 4 | 16 | >32 | 0.5 | – | >32 | 0.5 | – | 1 | 2 | – | 1 | –
CC1(C)C(NC(=O)C(=NOCc2cc(=O)c(O)cn2O)c2nsc(N)n2)C(=O)N1OS(=O)(=O)O (stereo not shown) [Compound 32] | >32 | – | – | 4 | – | – | 16 | – | – | 32 | – | >32 | – | 2 | 0.5 | – | – | 0.5 | – | – | MIC of antibiotic [1, 11]: 4 µg/mL; MIC of antibiotic [2, 11]: 4 µg/mL; MIC of antibiotic [3, 11]: 8 µg/mL; MIC of antibiotic [4, 11]: 8 µg/mL; MIC of antibiotic [5, 11]: 1 µg/mL; MIC of antibiotic [6, 11]: 0.25 µg/mL; MIC of antibiotic [7, 11]: 0.5 µg/mL
Nc1nc(C(=NOCc2cc(=O)c(O)cn2O)C(=O)NC2CN(S(=O)(=O)O)C2=O)cs1 (stereo not shown) [Compound 9] | >32 | – | >32 | 4 | – | >32 | 8 | – | 8 | 32 | >32 | 0.5 | – | >32 | 1 | – | 16 | 0.25 | – | 0.5 | –
C[C@H]1[C@H](NC(=O)/C(=N\OCc2cc(=O)c(O)cn2O)c2nccc(N)n2)C(=O)N1S(=O)(=O)O [Compound 21, (3S,4S)-3-{(2Z)-2-(4-aminopyrimidin-2-yl)-3-[(1,5-dihydroxy-4-oxo(2-hydropyridyl))methoxy]-3-azaprop-2-enoylamino}-4-methyl-2-oxoazetidinesulfonic acid] | – | 2 | >32 | – | 32 | >32 | – | 16 | 8 | – | >32 | – | 2 | >32 | – | 16 | 8 | – | 8 | 8 | MIC of antibiotic ([1]; + 324 + sulbactam, 4 mg/L each): 2 µg/mL; MIC of antibiotic ([2]; + 324 + sulbactam, 4 mg/L each): 32 µg/mL; MIC of antibiotic ([3]; + 324 + sulbactam, 4 mg/L each): 16 µg/mL; MIC of antibiotic ([4]; + 102 + sulbactam, 4 mg/L each): 32 µg/mL; MIC of antibiotic ([4]; + 324 + sulbactam, 4 mg/L each): 8 µg/mL; MIC of antibiotic ([5]; + 324 + sulbactam, 4 mg/L each): 4 µg/mL; MIC of antibiotic ([6]; + 324 + sulbactam, 4 mg/L each): 4 µg/mL; MIC of antibiotic ([7]; + 324 + sulbactam, 4 mg/L each): 4 µg/mL
C[C@H]1[C@H](NC(=O)/C(=N\OC(C)(C)C(=O)O)c2csc(N)n2)C(=O)N1S(=O)(=O)O [Aztreonam, aztreonam, reference compound] | 16 | 4 | – | – | 16 | – | 8 | 4 | – | – | – | 0.5 | 1 | – | 2 | 2 | – | 4 | 8 | – | Minimal Inhibitory Concentration of antibiotic [8]: 8 mg/L; Minimal Inhibitory Concentration of antibiotic [9]: 8 mg/L
CC1C(NC(=O)C(=NOCc2cc(=O)c(O)cn2O)c2csc(NC=O)n2)C(=O)N1S(=O)(=O)O (stereo not shown) [Compound 28] | >32 | – | >32 | 32 | – | >32 | 16 | – | >32 | 32 | >32 | 2 | – | >32 | 16 | – | 8 | 8 | – | 8 | –
CC1C(NC(=O)C(=NOCc2cc(=O)c(O)cn2O)c2nsc(N)n2)C(=O)N1S(=O)(=O)O (stereo not shown) [Compound 2] | – | – | 4 | – | – | 8 | – | – | 8 | – | >32 | – | – | >32 | – | – | >32 | – | – | 4 | MIC of antibiotic [1, 12]: 16 µg/mL; MIC of antibiotic [2, 12]: 16 µg/mL; MIC of antibiotic [4, 12]: 16 µg/mL; MIC of antibiotic [7, 12]: 0.5 µg/mL
